From paper PMC6338741 (Nature Communications, 2019)

Legend:
[1] = tested on: T1, TDCEFS (tyrosine decarboxylase from E. faecalis v583); test: Michaelis–Menten enzyme kinetics of purified tyrosine decarboxylase; assay type: biochemical, Enterococcus faecalis v583
T1 construct: 6xHis; made in house; host or cells: Escherichia coli BL21 (DE3), plasmid pSK18 (pET15b)
Description: (§1) To further characterize the substrate specificity and kinetic parameters of the bacterial TDCs, tdc genes from E. faecalis v583 (TDCEFS) and E. faecium W54 (TDCEFM and ^PTDCEFM) were expressed in Escherichia coli BL21 (DE3) and then purified.
(§2) The human DOPA decarboxylase gene cloned in pET15b was ordered from GenScript (Piscataway, USA) (Supplementary Table 6). TDC-encoding genes from E. faecalis v583 (TDCEFS, accession: EOT87933), E. faecium W54 (TDCEFM, accession: MH358385; ^PTDCEFM, accession: MH358384) were amplified using Phusion High-fidelity DNA polymerase and primers listed in Supplementary Table 8. All amplified genes were cloned in pET15b, resulting in pSK18, pSK11, and pSK22, respectively (Supplementary Table 6). Plasmids were maintained in E. coli DH5α and verified by Sanger sequencing before transformation to E. coli BL21 (DE3). Overnight cultures were diluted 1:50 in fresh LB medium with the appropriate antibiotic and grown to OD600 = 0.7–0.8. Protein translation was induced with 1 mM Isopropyl β-D-1-thiogalactopyranoside (IPTG, 11411446001, Roche Diagnostics) and cultures were incubated overnight at 18 °C. The cells were washed with 1/5th of 1 × ice-cold PBS and stored at −80 °C or directly used for protein isolation. Cell pellets were thawed on ice and resuspended in 1/50th of buffer A (300 mM NaCl; 10 mM imidazole; 50 mM KPO4, pH 7.5) containing 0.2 mg/mL lysozyme (105281, Merck) and 2 µg/mL DNAse (11284932001, Roche Diagnostics), and incubated for at least 10 min on ice before sonication (10 cycles of 15 s with 30 s cooling at 8 microns amplitude) using Soniprep-150 plus (Beun de Ronde, Abcoude, The Netherlands). Cell debris were removed by centrifugation at 20,000 × g for 20 min at 4 °C. The 6 × his-tagged proteins were purified using a nickel-nitrilotriacetic acid (Ni-NTA) agarose matrix (30250, Qiagen). Cell-free extracts were loaded on 0.5 ml Ni-NTA matrixes and incubated on a roller shaker for 2 h at 4 °C. The Ni-NTA matrix was washed three times with 1.5 ml buffer B (300 mM NaCl; 20 mM imidazole; 50 mM KPO4, pH 7.5) before elution with buffer C (300 mM NaCl; 250 mM imidazole; 50 mM KPO4, pH 7.5). Imidazole was removed from purified protein fractions using Amicon Ultra centrifugal filters (UFC505024, Merck) and washed three times and reconstituted in buffer D (50 mM Tris-HCL; 300 mM NaCl; pH 7.5) for TDCEFS, and TDCEFM, buffer E (100 mM KPO4; pH 7.4) for ^PTDCEFM and buffer F (100 mM KPO4; 0.1 mM pyridoxal-5-phosphate; pH 7.4) for DDC. Protein concentrations were measured spectrophotometrically (Nanodrop 2000, Isogen, De Meern, The Netherlands) using the predicted extinction coefficient and molecular weight from ExPASy ProtParam tool (www.web.expasy.org/protparam/).
(§3) Enzyme kinetics were performed in 200 mM potassium acetate buffer containing 0.1 mM PLP (pyridoxal-5-phosphate, P9255, Sigma, The Netherlands) and 10 nM of enzyme at pH 5 for TDCEFS and TDCEFM, and pH 4.5 for ^PTDCEFM. […] Michaelis–Menten kinetic curves were fitted using GraphPad Prism 7. […] Reactions were stopped with 0.7% HClO4, filtered and analyzed on the HPLC-ED-system described below.

[2] = tested on: T2, ^PTDCEFM (paralogous tyrosine decarboxylase from E. faecium W54); test: Michaelis–Menten enzyme kinetics of purified paralogous tyrosine decarboxylase; assay type: biochemical, Enterococcus faecium W54
T2 construct: 6xHis; made in house; host or cells: Escherichia coli BL21 (DE3), plasmid pSK22 (pET15b)
Description: as §1, §2, §3

[3] = tested on: TDCEFM (tyrosine decarboxylase from E. faecium W54); test: Michaelis–Menten enzyme kinetics of purified tyrosine decarboxylase; assay type: biochemical, Enterococcus faecium W54
Description: as §1, §2, §3

E. faecalis v583 [4] = test: Bacterial cultures incubated anaerobically with levodopa, HPLC-ED; assay type: cell-based, Enterococcus faecalis v583; conditions: E. faecalis v583 (enterococcal isolates), overnight culture, anaerobic, 37 °C, 100 µM levodopa
E. faecium W54 [5] = test: as above; assay type: cell-based, Enterococcus faecium W54; conditions: E. faecium W54 (enterococcal isolates), overnight culture, anaerobic, 37 °C, 100 µM levodopa
L. brevis W63 = test: as above; conditions: L. brevis W63, overnight culture, anaerobic, 37 °C, 100 µM levodopa
E. faecium W54 [6] = test: Levodopa decarboxylation by stationary batch cultures co-incubated with human DOPA decarboxylase inhibitors; conditions: E. faecium W54, OD600 ~2.0, stationary phase, 15 min, 100 µM levodopa, equimolar or 21.7 µM carbidopa
[7] = molecular target: bacterial TDCs versus human DOPA decarboxylase; test: Comparison of the inhibitory constants (Ki^TDC/Ki^DDC); assay type: biochemical; conditions: over the three bacterial TDCs
Protocol: as §3

^PTDCEFM = molecular target: T3, ^PTDCEFM (Enterococcus faecium, UniProt A0A481NV25); test: IC50 curves with carbidopa as inhibitor, levodopa as substrate; assay type: biochemical, Enterococcus faecium W54
T3 construct: 6xHis; made in house; host or cells: Escherichia coli BL21 (DE3), plasmid pSK22 (pET15b)

[8] = molecular target: T4, human DOPA decarboxylase (DDC) (Homo sapiens, UniProt P20711); test: as above; assay type: biochemical
T4 construct: 6xHis; host or cells: Escherichia coli BL21 (DE3)
T4 sequence (P20711 1-480): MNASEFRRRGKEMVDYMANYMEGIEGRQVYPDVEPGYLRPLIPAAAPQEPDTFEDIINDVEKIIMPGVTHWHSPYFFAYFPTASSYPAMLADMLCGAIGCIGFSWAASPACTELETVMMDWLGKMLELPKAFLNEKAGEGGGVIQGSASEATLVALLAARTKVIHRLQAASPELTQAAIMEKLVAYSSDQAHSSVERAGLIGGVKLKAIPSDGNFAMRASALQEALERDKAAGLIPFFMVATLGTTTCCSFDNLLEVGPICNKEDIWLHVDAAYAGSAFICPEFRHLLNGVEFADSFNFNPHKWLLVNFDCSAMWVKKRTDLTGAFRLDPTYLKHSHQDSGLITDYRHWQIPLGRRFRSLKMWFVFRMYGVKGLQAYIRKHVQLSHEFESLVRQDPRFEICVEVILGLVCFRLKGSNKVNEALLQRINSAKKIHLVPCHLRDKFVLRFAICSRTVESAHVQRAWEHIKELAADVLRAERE

TDCEFS = molecular target: T5, TDCEFS (Enterococcus faecalis, UniProt Q838D6); test: as above; assay type: biochemical, Enterococcus faecalis v583
T5 construct: 6xHis; made in house; host or cells: Escherichia coli BL21 (DE3), plasmid pSK18 (pET15b)

TDCEFM = TDCEFM (Enterococcus faecium, UniProt Q3Y2S5); test: as above; assay type: biochemical, Enterococcus faecium W54
E. faecalis v583 [9] = test: Levodopa decarboxylation by stationary batch cultures co-incubated with human DOPA decarboxylase inhibitors; conditions: E. faecalis v583, OD600 ~2.0, stationary phase, 15 min, 100 µM levodopa, equimolar or 21.7 µM carbidopa
[10] = substrate: N[C@@H](Cc1ccc(O)c(O)c1)C(=O)O; test: purified protein, by the assay type; conditions: other: DDC, levodopa as substrate, as used for Ki
[11] = levodopa as substrate, as used for Ki
[12] = pH 5.0, 10 nM enzyme, substance as substrate
[13] = ^PTDCEFM, pH 4.5, 10 nM enzyme, substance as substrate

T5 sequence (Q838D6 whole entry): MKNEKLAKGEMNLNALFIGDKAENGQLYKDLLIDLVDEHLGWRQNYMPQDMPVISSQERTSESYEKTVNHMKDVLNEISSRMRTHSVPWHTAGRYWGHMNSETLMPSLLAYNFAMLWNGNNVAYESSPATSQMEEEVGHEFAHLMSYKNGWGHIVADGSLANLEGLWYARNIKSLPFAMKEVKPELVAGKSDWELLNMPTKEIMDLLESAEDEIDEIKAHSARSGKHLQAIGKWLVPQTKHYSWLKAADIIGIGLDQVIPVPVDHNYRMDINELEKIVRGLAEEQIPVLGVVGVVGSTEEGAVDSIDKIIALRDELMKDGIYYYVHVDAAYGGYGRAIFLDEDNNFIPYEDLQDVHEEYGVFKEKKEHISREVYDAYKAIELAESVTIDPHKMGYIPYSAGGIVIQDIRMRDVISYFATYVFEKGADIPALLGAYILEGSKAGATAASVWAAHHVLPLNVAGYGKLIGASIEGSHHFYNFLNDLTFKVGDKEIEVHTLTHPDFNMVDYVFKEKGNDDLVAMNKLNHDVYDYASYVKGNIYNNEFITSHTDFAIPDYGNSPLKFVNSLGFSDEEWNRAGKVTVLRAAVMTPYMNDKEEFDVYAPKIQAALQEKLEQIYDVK
TDCEFM, sequence (Q3Y2S5 entry or part of it): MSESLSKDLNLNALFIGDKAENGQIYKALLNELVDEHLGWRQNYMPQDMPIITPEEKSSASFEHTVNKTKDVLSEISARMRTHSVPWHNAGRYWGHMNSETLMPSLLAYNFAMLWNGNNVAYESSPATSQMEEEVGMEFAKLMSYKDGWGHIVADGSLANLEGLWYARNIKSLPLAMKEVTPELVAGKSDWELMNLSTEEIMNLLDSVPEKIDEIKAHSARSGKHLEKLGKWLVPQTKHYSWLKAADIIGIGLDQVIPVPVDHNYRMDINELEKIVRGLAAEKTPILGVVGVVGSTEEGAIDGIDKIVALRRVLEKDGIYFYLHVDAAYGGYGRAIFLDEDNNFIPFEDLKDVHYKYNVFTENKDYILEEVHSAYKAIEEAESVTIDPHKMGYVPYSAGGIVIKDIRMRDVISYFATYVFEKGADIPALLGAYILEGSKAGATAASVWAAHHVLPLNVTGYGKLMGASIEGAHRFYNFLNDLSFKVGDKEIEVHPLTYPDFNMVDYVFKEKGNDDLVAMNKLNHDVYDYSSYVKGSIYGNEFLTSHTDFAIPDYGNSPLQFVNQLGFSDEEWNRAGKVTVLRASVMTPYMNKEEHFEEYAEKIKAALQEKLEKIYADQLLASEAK
T3 sequence (A0A481NV25 whole entry): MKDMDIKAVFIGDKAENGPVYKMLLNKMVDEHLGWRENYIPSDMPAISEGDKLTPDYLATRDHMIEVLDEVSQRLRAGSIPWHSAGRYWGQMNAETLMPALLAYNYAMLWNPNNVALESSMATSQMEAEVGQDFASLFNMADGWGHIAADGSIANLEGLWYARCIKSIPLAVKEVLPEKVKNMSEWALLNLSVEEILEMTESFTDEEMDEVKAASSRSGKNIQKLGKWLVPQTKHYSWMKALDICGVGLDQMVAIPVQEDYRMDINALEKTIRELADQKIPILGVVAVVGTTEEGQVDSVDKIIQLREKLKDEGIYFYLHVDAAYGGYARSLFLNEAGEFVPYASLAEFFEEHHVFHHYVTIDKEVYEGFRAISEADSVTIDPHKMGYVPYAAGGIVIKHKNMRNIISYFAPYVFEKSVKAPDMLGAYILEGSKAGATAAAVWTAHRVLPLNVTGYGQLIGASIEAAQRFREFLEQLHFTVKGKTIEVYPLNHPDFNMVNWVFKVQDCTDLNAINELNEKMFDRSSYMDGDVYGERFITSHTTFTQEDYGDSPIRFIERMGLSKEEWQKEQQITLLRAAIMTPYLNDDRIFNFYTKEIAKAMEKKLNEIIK

N[C@@H](Cc1ccc(O)c(O)c1)C(=O)O [levodopa, L-3,4-dihydroxyphenylalanine]
Km [1, 11]: 3040 µM
Kcat [1, 12]: 58.85 ± 2.28 s⁻¹
Km [1, 12]: 3000 ± 400 µM
Vmax [1, 12]: 35.3 ± 1.4 µM/min
Km ([2]; PTDCEFM, levodopa as substrate, as used for Ki): 448 µM
Kcat [2, 13]: 5.707 ± 0.35 s⁻¹
Km [2, 13]: 400 ± 100 µM
Vmax [2, 13]: 3.4 ± 0.2 µM/min
Km [3, 11]: 7240 µM
Kcat [3, 12]: 42.48 ± 2.22 s⁻¹
Km [3, 12]: 7200 ± 800 µM
Vmax [3, 12]: 25.5 ± 1.3 µM/min

N[C@@H](Cc1ccc(O)cc1)C(=O)O [tyrosine, L-tyrosine]
conversion of tyrosine and levodopa into tyramine and dopamine by the culture (E. faecalis v583 [4]): able to convert
Kcat [1, 12]: 116 ± 4.8 s⁻¹
Km [1, 12]: 600 ± 100 µM
Vmax [1, 12]: 69.6 ± 2.9 µM/min
conversion of tyrosine and levodopa into tyramine and dopamine by the culture (E. faecium W54 [5]): able to convert
conversion of tyrosine and levodopa into tyramine and dopamine by the culture (L. brevis W63): able to convert
Kcat [2, 13]: 7.26 ± 0.32 s⁻¹
Km [2, 13]: 200 ± 50 µM
Vmax [2, 13]: 4.4 ± 0.2 µM/min
Kcat [3, 12]: 36.73 ± 4.12 s⁻¹
Km [3, 12]: 1500 ± 300 µM
Vmax [3, 12]: 22 ± 2.5 µM/min

C[C@@](Cc1ccc(O)c(O)c1)(NN)C(=O)O [carbidopa]
levodopa conversion by batch culture on co-incubation with carbidopa (E. faecium W54 [6]): unaffected
Ki^TDC/Ki^DDC, times more potent inhibitor of human DOPA decarboxylase than bacterial TDCs [7]: 1.4–1.9 × 10^4
IC50 (^PTDCEFM): 201 µM
HillSlope (^PTDCEFM; PTDCEFM, IC50 curve): 1.1
[IC50]/[s] (^PTDCEFM; PTDCEFM, [S] levodopa 500 µM): 40%
Ki (^PTDCEFM; read-out: Ki=IC50/(1+([S]/Km))): 95.1 µM
IC50 [8]: 0.01 µM
HillSlope ([8]; DDC, IC50 curve): 1.16
[IC50]/[s] ([8]; DDC, [S] levodopa 100 µM): 0.01%
Ki ([8]; read-out: Ki=IC50/(1+([S]/Km))): 0.005 µM
IC50 (TDCEFS): 93.8 µM
HillSlope (TDCEFS; TDCEFS, IC50 curve): 1.6
[IC50]/[s] (TDCEFS; TDCEFS, [S] levodopa 1000 µM): 9%
Ki (TDCEFS; read-out: Ki=IC50/(1+([S]/Km))): 70.6 µM
IC50 (TDCEFM): 79.2 µM
HillSlope (TDCEFM; TDCEFM, IC50 curve): 1.3
[IC50]/[s] (TDCEFM; TDCEFM, [S] levodopa 1000 µM): 8%
Ki (TDCEFM; read-out: Ki=IC50/(1+([S]/Km))): 69.6 µM
levodopa conversion by batch culture on co-incubation with carbidopa (E. faecalis v583 [9]): unaffected

B1: human DOPA decarboxylase (DDC) (Homo sapiens) (protein)
chain: T4 sequence (P20711 1-480)
Km [10]: 87.3 µM
